According to patent publication US12558362B2, “Use of cannabidiol in the treatment of seizures associated with rett syndrome” (JAZZ PHARMACEUTICALS RESEARCH UK LIMITED, priority 2020, dated 2026):
Entries after “also recorded” stand apart in the source; their conditions may differ.

What was measured:
[1] = system: patients diagnosed with Rett syndrome; assay: Open label, expanded-access program of botanically derived purified CBD: seizure frequency recorded in caregiver diaries relative to baseline; format: in vivo, human; set-up: Reduction in tonic seizures over the treatment period / Reduction in focal seizures with impairment over the treatment period / Reduction in absence seizures over the treatment period: concentration or dose not given beside the values; Seizure frequency, tonic / Seizure frequency, tonic-clonic / Seizure frequency, absence / Seizure frequency, focal with impairment: unit not given here; details: for Seizure frequency, focal with impairment: baseline 3.2
Description: Subjects were required to be on one or more AEDs at stable doses for a minimum of two weeks prior to baseline and to have stable vagus nerve stimulation (VNS) settings and ketogenic diet ratios for a minimum of four weeks prior to baseline.
Patients were administered botanically derived purified CBD in a 100 mg/mL sesame oil-based solution which was titrated to an initial dose of between 5 and 25 milligrams per kilogram per day (mg/kg/day) in two divided doses. Doses were then increased weekly by 5 mg/kg/day to a goal of 25 mg/kg/day where required.
A maximum dose of 50 mg/kg/day could be utilised for patients who were tolerating the medication but had not achieved seizure control; these patients had further weekly titration by 5 mg/kg/day.
There were three patients in this study, and each received CBD for various durations of time. Modifications were made to concomitant AEDs as per clinical indication.
Seizure frequency, intensity, and duration were recorded by caregivers in a diary during a baseline period of at least 28 days. Changes in seizure frequency relative to baseline were calculated after at least 2 weeks and at defined timepoints of treatment.
Patients may be defined as responders if they had more than 50% reduction in seizure frequency compared to baseline. The percent change in seizure frequency was calculated as follows: […]
The percent change of seizure frequency may be calculated for any time interval where seizure number has been recorded. For the purpose of this example the percent change of seizure frequency for the end of the treatment period was calculated as follows:
[formula] Results Patient Description

[2] = system: patients with Dravet and Lennox-Gastaut syndrome; details: cited from earlier work
[3] = system: mouse model of Rett syndrome; details: cited from earlier work
[4] = Patient 2, treated for 84 weeks
[5] = printed Patient 2 (follows Table 2C of Patient 3), treated for 36 weeks

C=C(C)[C@@H]1CCC(C)=C[C@H]1c1c(O)cc(CCCCC)cc1O [CBD, cannabidiol]
Seizure frequency, tonic-clonic ([1]; Patient 1, 2 weeks, CBD 5.0 mg/kg/day, baseline 10.0): 26.0 | Seizure frequency, tonic ([1]; Patient 1, 2 weeks, CBD 5.0 mg/kg/day, baseline 22.4): 22.0 | Seizure frequency, tonic-clonic ([1]; Patient 1, 4 weeks, CBD 10.0 mg/kg/day, baseline 10.0): 21.4 | Seizure frequency, tonic ([1]; Patient 1, 4 weeks, CBD 10.0 mg/kg/day, baseline 22.4): 38.0 | Seizure frequency, tonic-clonic ([1]; Patient 1, 8 weeks, CBD 20.0 mg/kg/day, baseline 10.0): 14.0 | Seizure frequency, tonic ([1]; Patient 1, 8 weeks, CBD 20.0 mg/kg/day, baseline 22.4): 28.0 | Seizure frequency, tonic-clonic ([1]; Patient 1, 12 weeks, CBD 25.0 mg/kg/day, baseline 10.0): 12.0 | Seizure frequency, tonic ([1]; Patient 1, 12 weeks, CBD 25.0 mg/kg/day, baseline 22.4): 28.0 | Seizure frequency, tonic-clonic ([1]; Patient 1, 16 weeks, CBD 15.0 mg/kg/day, baseline 10.0): 22.0 | Seizure frequency, tonic ([1]; Patient 1, 16 weeks, CBD 15.0 mg/kg/day, baseline 22.4): 14.0 | Seizure frequency, tonic-clonic ([1]; Patient 1, 24 weeks, CBD 15.0 mg/kg/day, baseline 10.0): 12.0 | Seizure frequency, tonic ([1]; Patient 1, 24 weeks, CBD 15.0 mg/kg/day, baseline 22.4): 8.0 | Seizure frequency, tonic-clonic ([1]; Patient 1, 36 weeks, CBD 15.0 mg/kg/day, baseline 10.0): 20.0 | Seizure frequency, tonic ([1]; Patient 1, 36 weeks, CBD 15.0 mg/kg/day, baseline 22.4): 20.0 | Reduction in tonic seizures over the treatment period ([1]; Patient 1, treated for 36 weeks): 10.7% | Seizure frequency, absence ([1]; Patient 2, 8 weeks, CBD 20.0 mg/kg/day, baseline 0): 1.0 | Seizure frequency, focal with impairment ([1]; Patient 2, 8 weeks, CBD 20.0 mg/kg/day): 0 | Seizure frequency, tonic ([1]; Patient 2, 8 weeks, CBD 20.0 mg/kg/day, baseline 5.6): 3.0 | Seizure frequency, absence ([1]; Patient 2, 12 weeks, CBD 20.0 mg/kg/day, baseline 0): 0 | Seizure frequency, focal with impairment ([1]; Patient 2, 12 weeks, CBD 20.0 mg/kg/day): 0 | Seizure frequency, tonic ([1]; Patient 2, 12 weeks, CBD 20.0 mg/kg/day, baseline 5.6): 1.6 | Seizure frequency, absence ([1]; Patient 2, 16 weeks, CBD 20.0 mg/kg/day, baseline 0): 0 | Seizure frequency, focal with impairment ([1]; Patient 2, 16 weeks, CBD 20.0 mg/kg/day): 0 | Seizure frequency, tonic ([1]; Patient 2, 16 weeks, CBD 20.0 mg/kg/day, baseline 5.6): 2.0 | Seizure frequency, absence ([1]; Patient 2, 24 weeks, CBD 20.0 mg/kg/day, baseline 0): 0.8 | Seizure frequency, focal with impairment ([1]; Patient 2, 24 weeks, CBD 20.0 mg/kg/day): 0 | Seizure frequency, tonic ([1]; Patient 2, 24 weeks, CBD 20.0 mg/kg/day, baseline 5.6): 0.4 | Seizure frequency, absence ([1]; Patient 2, 36 weeks, CBD 20.0 mg/kg/day, baseline 0): 0.4 | Seizure frequency, focal with impairment ([1]; Patient 2, 36 weeks, CBD 20.0 mg/kg/day): 0 | Seizure frequency, tonic ([1]; Patient 2, 36 weeks, CBD 20.0 mg/kg/day, baseline 5.6): 0.4 | Seizure frequency, absence ([1]; Patient 2, 48 weeks, CBD 20.0 mg/kg/day, baseline 0): 0 | Seizure frequency, focal with impairment ([1]; Patient 2, 48 weeks, CBD 20.0 mg/kg/day): 0 | Seizure frequency, tonic ([1]; Patient 2, 48 weeks, CBD 20.0 mg/kg/day, baseline 5.6): 0.8 | Seizure frequency, absence ([1]; Patient 2, 60 weeks, CBD 20.0 mg/kg/day, baseline 0): 0 | Seizure frequency, focal with impairment ([1]; Patient 2, 60 weeks, CBD 20.0 mg/kg/day): 0 | Seizure frequency, tonic ([1]; Patient 2, 60 weeks, CBD 20.0 mg/kg/day, baseline 5.6): 1.4 | Seizure frequency, absence ([1]; Patient 2, 72 weeks, CBD 21.3 mg/kg/day, baseline 0): 0.4 | Seizure frequency, focal with impairment ([1]; Patient 2, 72 weeks, CBD 21.3 mg/kg/day): 0 | Seizure frequency, tonic ([1]; Patient 2, 72 weeks, CBD 21.3 mg/kg/day, baseline 5.6): 0.4 | Seizure frequency, absence ([1]; Patient 2, 84 weeks, CBD 20.0 mg/kg/day, baseline 0): 0.4 | Seizure frequency, focal with impairment ([1]; Patient 2, 84 weeks, CBD 20.0 mg/kg/day): 0 | Seizure frequency, tonic ([1]; Patient 2, 84 weeks, CBD 20.0 mg/kg/day, baseline 5.6): 0.4 | Reduction in focal seizures with impairment over the treatment period [1, 4]: 100% | Reduction in tonic seizures over the treatment period [1, 4]: 92.9% | Seizure frequency, tonic-clonic ([1]; Patient 3, 4 weeks, CBD 25.0 mg/kg/day, baseline 4.0): 4.0 | Seizure frequency, absence ([1]; Patient 3, 4 weeks, CBD 25.0 mg/kg/day, baseline 8.0): 1.0 | Seizure frequency, tonic ([1]; Patient 3, 4 weeks, CBD 25.0 mg/kg/day, baseline 16.0): 2.0 | Seizure frequency, tonic-clonic ([1]; Patient 3, 12 weeks, CBD 25.0 mg/kg/day, baseline 4.0): 4.0 | Seizure frequency, absence ([1]; Patient 3, 12 weeks, CBD 25.0 mg/kg/day, baseline 8.0): 0 | Seizure frequency, tonic ([1]; Patient 3, 12 weeks, CBD 25.0 mg/kg/day, baseline 16.0): 1.0 | Seizure frequency, tonic-clonic ([1]; Patient 3, 16 weeks, CBD 25.0 mg/kg/day, baseline 4.0): 6.0 | Seizure frequency, absence ([1]; Patient 3, 16 weeks, CBD 25.0 mg/kg/day, baseline 8.0): 0 | Seizure frequency, tonic ([1]; Patient 3, 16 weeks, CBD 25.0 mg/kg/day, baseline 16.0): 4.0 | Seizure frequency, tonic-clonic ([1]; Patient 3, 24 weeks, CBD 25.0 mg/kg/day, baseline 4.0): 8.0 | Seizure frequency, absence ([1]; Patient 3, 24 weeks, CBD 25.0 mg/kg/day, baseline 8.0): 4.0 | Seizure frequency, tonic ([1]; Patient 3, 24 weeks, CBD 25.0 mg/kg/day, baseline 16.0): 0 | Seizure frequency, tonic-clonic ([1]; Patient 3, 36 weeks, CBD 25.0 mg/kg/day, baseline 4.0): 6.0 | Seizure frequency, absence ([1]; Patient 3, 36 weeks, CBD 25.0 mg/kg/day, baseline 8.0): 1.0 | Seizure frequency, tonic ([1]; Patient 3, 36 weeks, CBD 25.0 mg/kg/day, baseline 16.0): 4.0 | Reductions in seizures over the period of treatment, overall ([1]; all three patients, range over patients and seizure types): 10.7-100.0% | Decrease of seizure frequency rates: tonic, tonic-clonic, absence and focal seizures with impairment ([1]; conclusion, all patients): 11-100.0% | Seizure freedom, focal seizures with impairment ([1]; one patient (patient 2)): became seizure free of focal seizures with impairment | Reduction in absence seizures over the treatment period [1, 5]: 87.5% | Reduction in tonic seizures over the treatment period [1, 5]: 75% | Reduction in tonic seizures, all three patients ([1]; range over the three patients): 11-93% | Reduction of seizures associated with Rett syndrome ([1]; summary statement of the program): significantly reduce the number of seizures; also recorded: significant reduction in specific seizure types | Effect on frequency of tonic, absence and focal seizures with impairment ([1]; three patients with Rett syndrome): effective in reducing the frequency | Efficacy in randomized control trials [2]: showed efficacy

C=C(C)[C@@H]1CCC(C)=C[C@H]1c1c(O)cc(CCC)cc1O [CBDV, cannabidivarin]
Behavioural alterations [3]: rescue the behavioural alterations
